Measurements from patent EP4154876B1, “CBX7 INHIBITOR FOR USE IN THE TREATMENT AND/OR PREVENTION OF A BLOOD VESSEL DISORDER” (Universität Potsdam, priority 2021, dated 2023).
Where a SMILES comes first, the peptide text is derived from it. [ ]: non-standard residue; d: D form. The star is where a group is joined. Benzoyl(4-tBu) = CC(C)(C)c1ccc(C(=O)*)cc1; Lys(Et2) = CCN(CC)CCCC[C@H](N)C(=O)O

Columns and labels:
chromodomains of CBX7 = molecular target: T1, chromodomains of CBX7 (Homo sapiens, UniProt O95931); conditions: CBX7 chromodomain; cited from earlier work
T1 sequence (O95931 11-69 limits assumed): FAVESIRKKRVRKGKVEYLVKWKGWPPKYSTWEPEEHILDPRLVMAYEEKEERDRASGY

ccm2 mutants = assay: Pharmacological treatment of zebrafish ccm2 mutants (CCM disease model); format: in vivo; conditions: for posterior caudal vein plexus: ccm2 mutants after treatment with inhibitor, Fig. 4A right column; for heart phenotype (strongly enlarged and ballooning heart): ccm2 mutants treated with inhibitor, Fig. 4A left column
Method: In ccm2 mutants the heart is strongly enlarged and ballooning. In ccm2 mutants treated with MS37452 or MS351, this phenotype is suppressed and is reminiscent of wild type. Similarly, the posterior caudal vein plexus in ccm2 mutants is fenestrated after treatment with the inhibitors. Quantifications of these phenotype classes are in B). To elucidate whether a pharmacological suppression of Cbx7a has the same effect on the zebrafish CCM model, specific small compound inhibitors of CBX7 were tested (MS37452 and MS351). Both inhibitors block the binding of CBX7 to histone modifications on genomic DNA and suppress the epigenetic function of this protein within the Polycomb repressive complex (PRC1) (Fig. 3). Both inhibitors suppress the expression of the CCM phenotype in zebrafish disease models (Fig. 4). The effects of both inhibitors are reminiscent of the genetic knockout of cbx7a in ccm2 mutants. Heart phenotypes is shown in Fig. 4A left column while the region of the posterior caudal vein plexus in Fig. 4A right column. In ccm2 mutants the heart is strongly enlarged and ballooning. In ccm2 mutants treated with MS37452 or MS351, this phenotype is suppressed and is reminiscent of wild type. Similarly, the posterior caudal vein plexus in ccm2 mutants is fenestrated after treatment with the inhibitors. Quantifications of these phenotype classes are shown Fig. 4B. The y-axis represents the ratio of the amounts of embryos with suppressed ballooning heart and abnormal caudal vein plexus phenotype to the amounts of embryos with ballooning heart and abnormal caudal vein plexus phenotype.

CBX7ChD = molecular target: T2, CBX7ChD (Homo sapiens, UniProt O95931); conditions: estimated; determined by NMR titration; CBX7ChD alone; cited from earlier work
T2 sequence (O95931 11-69 limits assumed): T1 sequence (O95931 11-69 limits assumed)

[1] = test system: ChDs from other CBX proteins including CBX1/3/5 (HP1β/γ/α) and CBX2/4/6/8; conditions: cited from earlier work

| Structure (SMILES) | Kd (chromodomains of CBX7) [nM] | posterior caudal vein plexus (ccm2 mutants) | heart phenotype (strongly enlarged and ballooning heart) (ccm2 mutants) | Kd (CBX7ChD) [µM] | binding to ChDs from other CBX proteins [1] |
| --- | --- | --- | --- | --- | --- |
| CCN(CC)CCCC[C@H](NC(=O)[C@H](CC(C)C)NC(=O)[C@H](C)NC(=O)[C@H](Cc1ccccc1)NC(=O)c1ccc(C(C)(C)C)cc1)C(=O)N[C@@H](CO)C(=O)OC [UNC3866] ({Benzoyl(4-tBu)}-FAL[Lys(Et2)]S-OMe) | ~100 |  |  |  |  |
| Cc1ccccc1Cn1c(=N)n(CC(O)c2ccc(Cl)c(Cl)c2)c2ccccc21.Cl (stereo not shown) [MS351] |  | fenestrated | suppressed | ~500 | does not bind |
| COc1cccc(C(=O)N2CCN(C(=O)COc3cccc(C)c3)CC2)c1OC [MS37452] |  | fenestrated | suppressed |  |  |
